US6399649B1, “Compositions and methods for the treatment of chronic lymphocytic leukemia” (Boston Medical Center Corporation, priority 1998, dated 2002)

How the values were obtained:
CLL cells = experiment: cAMP assay (RIA) in CLL cells; type: cell-based, human; conditions: two hours; used alone and combined with forskolin
Method: (§1) One million cells in 1 mL were treated for two hours with or without drugs. 0.8 mL of cells were pelleted by spinning at 4,000 rpm (RCF=1,310) in microcentrifuge tube. After discarding 0.7 mL, 400 uL of ethanol was added, vortexed and left on ice for five minutes. Particulate cell debris was removed by centrifugation at 14,000 rpm (RCF=16,000). The supernatant was stored at −20° C. until the day of assay, at which time it was dried in a Speedivac (Savant, Farmingdale, N.Y.) to a volume of 50 uL. After ten-fold dilution in 10 mMol/L Tris pH 8.0, 1 mMol/L EDTA, the cAMP sample was analyzed for cAMP concentration using a cAMP RIA kit (NEN, Boston, Mass.) according to the manufacturer's instructions using the nonacetylated protocol.
In this example, it was determined what role type 1 and type 4 PDE activity might play in the catabolism of cyclic nucleotides in CLL cells. cAMP levels were measured after culturing leukemic cells with varying concentrations of PDE-isoform specific inhibitors, either alone or in conjunction with an activator of adenylate cyclase, the diterpene forskolin. Specifically, one million freshly isolated cells were incubated with the indicated drugs for two hours prior to analysis of cAMP in cell lysates using a radioimmunoassay. The results are shown in FIG. 4 and the data are the mean of three individually assayed culture wells.

[1] = system: PDE activity in CLL cells; experiment: cAMP PDE assay on CLL cell lysates; type: biochemical, human; conditions: 10 uMol/L
From the text: The technique of Robiesek et al., itself adapted from an assay described by Thompson and Appleman, was used in modified form. S. A. Robicsek et al., “Multiple high-affinity cAMP-phosphodiesterases in human T-lymphocytes,” Biochem. Pharmacol. 42:869 (1991). W. J. Thompson and M. M. Appleman, “Multiple cyclic nucleotide phosphodiesterase activities from rat brain,” Biochemistry 10:311 […]. 150 million purified CLL cells were pelleted and sonicated (Branson 350 Sonifier with micropit probe, output =2, 50% duty cycle) on ice in 1.0 mL of a buffer which contained 20 mMol/L Tris (pH 6.8), 1 mMol/L EDTA, aprotinin (50 u/mL), pepstatin (1 mg/mL), PMSF (1 mMol/L) and 3.75 mMol/L b-ME. Assay buffer contained 100 mMol/L Tris (pH 8.0), 20 mMol/l MgCl2, 0.2% BSA and 7.5 mMol/L b-ME. [^3H]-cAMP (NEN, Boston, Mass.) was incubated with PDE for 10 minutes at 30° C. in 20 uL volumes (10 uL of sonication buffer and 10 uL of assay buffer) which contained 0.22 units of alkaline phosphatase. 10 uMol/L rolipram or 0.2 mMol/L calcium/20 nMol/L calmodulin were added to the assay buffer as appropriate. Reactions were halted by the addition of 0.5 mL of a 1:3 slurry w/v slurry of AG1-X8 anion exchange resin and a mixture of equal volumes of water and isopropanol. […] The radiolabelled nucleosides in the supernatant were counted using Ecoscint scintillation fluid (National Diagnostics, Atlanta, Ga.). […]

[2] = system: magnetic bead purified CD19+B cells; experiment: Hoechst 33342 apoptosis assay, CD19+ B cells; type: cell-based, human
Method: Hoechst 33342 was dissolved in water and frozen at 33 mg/mL at −20° C. One million cells/well were incubated in duplicate or triplicate in 48 well tissue culture plates (Costar, Cambridge, Mass.) with or without drug treatment for […] in 1 mL of culture media. Cells were transferred to 12×75 mm polystyrene Falcon® 2054 FACS tubes (Becton Dickinson Labware, Lincoln Park, N.J.) and incubated for ten minutes at 37° C. with Hoechst 33342 at a final concentration of […]. 23 Cells were stored on ice until analysis on a FACS Vantage flow cytometer (Becton Dickinson, San Jose, Calif.). Hoechst 33342 dye fluorescence was excited with a UV laser and detected using a 450 bandpass filter; Data was analyzed using Cellquest software (Becton Dickinson, San Jose, Calif.).
This example describes the effect of PDE4 inhibition on normal B and T cells. […] Specifically, one million WMC were cultured with the indicated concentration of rolipram with or without the addition of 40 uMol/L forskolin for 72 hours in the presence of 2 units/mL IL-2. Apoptosis was determined by Hoechst 33342 flow cytometry. […] In contrast, magnetic bead purified CD19+B cells were sensitive to rolipram, although the increment in apoptosis observed was superimposed on a high basal apoptosis rate that has previously been reported in cultured human B cells. Given that crosslinking of cell surface immunoglobulin on resting B cells has been reported to reduce basal and forskolin-induced apoptosis in culture, we also stimulated CD19+ cells with a polyclonal Fab′2 anti-IgM/IgG reagent 30 minutes prior to the addition of the phosphodiesterase inhibitor.

Type 4 enzymes = conditions: cited from earlier work
CD19+ B cells = experiment: cAMP assay (RIA) in CD19+ B cells; type: cell-based, human; conditions: at two hours; unstimulated or anti-Ig stimulated
Method: as §1
For each of the four cell populations, two or six hours after drug treatment, cAMP levels were higher for rolipram/forskolin-treated cells than for forskolin only treated cells (test: one tailed significance level<0.05) (FIG. 9).

[3] = cited from earlier work

**Q.** Which “CLL cAMP levels” value (CLL cells) does the source give for `COc1ccc(C2CNC(=O)C2)cc1OC1CCCC1` (racemic) [rolipram, 4-(3-cyclopentyloxy-4-methoxyphenyl)-2-pyrrolidone] here?
**A.** The value was “augmented CLL cAMP levels”.

**Q.** What about the “PDE activity in CLL cells” value [1] of the same molecule?
**A.** Its value is “inhibited”.

**Q.** What about the “apoptosis of anti-Ig stimulated CD19+ B cells” value ([2]; polyclonal Fab'2 anti-IgM/IgG 30 minutes prior to inhibitor) of the same molecule?
**A.** The value was “markedly reduced both basal apoptosis and the sensitivity of the B cells to rolipram”.

**Q.** What about the “apoptosis of CD19+ B cells” value ([2]; unstimulated, high basal apoptosis rate) of the same molecule?
**A.** The value was “sensitive”.

**Q.** What about the IC50 (Type 4 enzymes) of the same molecule?
**A.** Its IC50 is 1000 nM.

**Q.** And the “cAMP levels in CD19+ B cells” value (CD19+ B cells)?
**A.** The value was “raised cAMP levels equivalently”.

**Q.** What about the emesis ([3]; humans, higher dosages) of the same molecule?
**A.** Its emesis is “emetogenic”.

**Q.** And the tolerability ([3]; studied as an antidepressant in humans)?
**A.** The tolerability was “well tolerated”.
